Source: US20230045199A1, “COMPOSITIONS AND METHODS FOR HEMOGLOBIN PRODUCTION” (THE CHILDREN'S HOSPITAL OF PHILADELPHIA, priority 2019, published 2023)
Like-named read-outs stand apart in the source and are kept apart here.

Test system: PP6C
Experiment: Western blot of PP6C and gamma-globin in primary human cells after RNP electroporation of SpCas9 with guide RNA
Format: cell-based
Text: FIGS. 2A-2D provide data regarding validation of PP6C as a regulator of HbF in human primary cells utilizing RNP-based electroporation of SpCas9 with guide RNA targeting PP6C. FIG. 2A depicts protein levels by Western blot of PP6C and gamma-globin with 6 independent guide RNA targeting PP6C or a non-targeting guide RNA. […] These specific guide RNAs were utilized for further primary human cell testing. FIG. 2B provides a graph of gamma globin mRNA levels in four independent biological replicates of human primary cells treated with PP6C sgRNA #1 or #3; a guide RNA targeting the BCL11A +58 enhancer (positive control), or a non-targeting guide RNA (negative control). FIG. 2C provides representative flow cytometric plots of HbF staining (top) and compiled F-cell flow cytometric staining in four independent biological replicates (bottom) in cells treated with PP6C sgRNA, BCL11A +58 sgRNA, or non-targeting sgRNA. […] FIG. 2D are representative cation-exchange high performance liquid chromatography (HPLC) tracings (top) and complied HPLC HbF+ quantitation in two independent biological replicates (bottom) in cells treated with PP6C sgRNA, BCL11A +58 sgRNA, or non-targeting sgRNA. HbF elutes as a distinct peak (grey box), followed by adult hemoglobin (HbA). Percentages are quantified as HbF percentage of total globins (HbF+HbA).
Cells were transduced with one of the six guide RNAs targeting PP6C, a guide RNA targeting BCL11A exon 2 (positive control; BCL11A is a repressor of HbF expression), or non-targeting guide RNA or untreated control (negative controls).

Substance | PP6C protein level | gamma-globin protein levels | gamma-globin protein levels (listed as PP6C guide RNA #1) | gamma-globin protein levels (listed as PP6C guide RNA #3)
PP6C sgRNA1: CRISPR sgRNA targeting PP6C, sequence GCACATCAACTAGTGCACGA (SEQ ID NO: 5) (listed as DNA, chemistry not given here) | significantly depleted | significantly increased | significant induction | –
PP6C sgRNA3: CRISPR sgRNA targeting PP6C, sequence GGAACTGCCCGGAATAACTT (SEQ ID NO: 7) (listed as DNA, chemistry not given here) | significantly depleted | significantly increased | – | significant induction
PP6C sgRNA4: CRISPR sgRNA targeting PP6C, sequence TCCTCGGGGACTGATAGCCC (SEQ ID NO: 8) (listed as DNA, chemistry not given here) | significantly depleted | significant induction | – | –
